In patent US20070154567A1, “Use of mercury to treat cancer” (priority 2006, published 2007):

Tested on: apocrine gland adenocarcinoma, metastatic to lymph node
Assay: Oral inorganic mercury (II) treatment of a pet Labrador Retriever after surgical removal of the lump: blood data and clinical follow-up
Type: in vivo, dog
Design: MCV / MCH / MCHC / Neutrophils, absolute / Bands / Lymphocytes, absolute / Monocytes, absolute / Eosinophils, absolute / Basophils, absolute: unit not given here
Description: A 7 years old, 106 lbs male Labrador Retriever, was diagnosed with apocrine gland adenocarcinoma, metastatic to lymph node. The lump on the neck was surgically removed and biopsy analysis was performed.
The owner chose not to pursue chemo- and radiation therapies. Instead, the dog undertook a full course of inorganic mercury (II) treatment. The treatment consisted of total of 150 days including three 30-day treatment courses and two 30-day interval periods between courses. The formulation contained 1 mM mercury acetate in 20 mM sodium acetate buffer, pH 4.5, with 100 mM sucrose and 150 mM sodium chloride additives. The formulation was introduced orally to the pet three times a day 1 hour before taking food at 0.5 micromole Hg^2+/kg/day.
The blood data at Day 175 were normal (see Table 1).

CC(=O)[O-].CC(=O)[O-].[Hg+2] [inorganic mercury (II), mercury acetate]
health of the dog (13 months after completing the treatment): continues to be healthy | ALT (SGPT) (Day 175): 52 U/L | AST (SGOT) (Day 175): 29 U/L | Albumin (Day 175): 3.9 g/dL | Albumin/Globulin Ratio (Day 175): 1.1 | Alkaline Phosphatase (ALP) (Day 175): 94 U/L | BUN/Creatinine Ratio (Day 175): 17 | Bands (Day 175): 0 | Basophils, absolute (Day 175): 0 | CPK (Day 175): 267 U/L | Calcium (Day 175): 10.3 mg/dL | Chloride (Day 175): 115 mE/L | Cholesterol (Day 175): 322 mg/dL | Creatinine (Day 175): 1.2 mg/dL | Eosinophils, (%) (Day 175): 5% | Eosinophils, absolute (Day 175): 445 | Globulin (Day 175): 3.4 g/dL | Glucose (Day 175): 105 mg/dL | Hematocrit (Day 175): 53.7% | Hemoglobin (Day 175): 17.7 g/dL | Lymphocytes, (%) (Day 175): 31% | Lymphocytes, absolute (Day 175): 2759 | MCH (Day 175): 21.9 | MCHC (Day 175): 33.0 | MCV (Day 175): 66 | Monocytes, (%) (Day 175): 4% | Monocytes, absolute (Day 175): 356 | Neutrophils, (%) (Day 175): 60% | Neutrophils, absolute (Day 175): 5340 | Phosphorus (Day 175): 4.6 mg/dL | Platelet count (Day 175): 294 10^3/microl | Potassium (Day 175): 5.1 mE/L | RBC (Day 175): 8.1 10^6/microl | Sodium (Day 175): 151 mE/L | Total Billirubin (Day 175): 0.2 mg/dL | Total Protein (Day 175): 7.3 g/dL | Urea Nitrogen (Day 175): 20 mg/dL | WBC (Day 175): 8.9 10^3/microl | blood data (Day 175): normal | metastases on chest x-ray (Day 356, owner's notes): no metastases | metastasis or new mass growth in abdominal, lymph nodes or chest (post treatment evaluation by oncologist and veterinarian, X-rays and ultrasound): no evidence of metastasis or new mass growth
